Tests used:
Assay in all cases: relative viability (nuclei count vs DMSO), 5 days (fraction); higher = more cells survive
17-AAG + Dasatinib = compound: C=CCNC1=C2C[C@@H](C)C[C@H](OC)[C@H](O)[C@@H](C)/C=C(\C)[C@H](OC(N)=O)[C@@H](OC)/C=C\C=C(/C)C(=O)NC(=CC1=O)C2=O [17-AAG] + Cc1nc(Nc2ncc(C(=O)Nc3c(C)cccc3Cl)s2)cc(N2CCN(CCO)CC2)n1 [Dasatinib] (partner 0.075 µM)
In short: (§1)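 The day after seeding in 1536-well plates, lung cancer cell lines were treated by pin tool with a single drug, or with a fixed anchor-drug dose together with five library-drug doses (not always all listed) in √10 steps. After 5 days, a combined fix-and-stain solution (final 0.05% Triton X-100, 1% formaldehyde, 1 ug/ml Hoechst) was added. Nuclei counted on 4× images gave relative viability as treated counts over vehicle counts, reported as the median of duplicate plates.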

17-AAG + Navitoclax = compound: C=CCNC1=C2C[C@@H](C)C[C@H](OC)[C@H](O)[C@@H](C)/C=C(\C)[C@H](OC(N)=O)[C@@H](OC)/C=C\C=C(/C)C(=O)NC(=CC1=O)C2=O [17-AAG] + CC1(C)CCC(c2ccc(Cl)cc2)=C(CN2CCN(c3ccc(C(=O)NS(=O)(=O)c4ccc(N[C@H](CCN5CCOCC5)CSc5ccccc5)c(S(=O)(=O)C(F)(F)F)c4)cc3)CC2)C1 [Navitoclax] (partner 0.5 µM)
In short: as §1

17-AAG + Crizotinib = compound: C=CCNC1=C2C[C@@H](C)C[C@H](OC)[C@H](O)[C@@H](C)/C=C(\C)[C@H](OC(N)=O)[C@@H](OC)/C=C\C=C(/C)C(=O)NC(=CC1=O)C2=O [17-AAG] + C[C@@H](Oc1cc(-c2cnn(C3CCNCC3)c2)cnc1N)c1c(Cl)ccc(F)c1Cl [Crizotinib] (partner 1 µM)
In short: as §1

17-AAG + Vorinostat = compound: C=CCNC1=C2C[C@@H](C)C[C@H](OC)[C@H](O)[C@@H](C)/C=C(\C)[C@H](OC(N)=O)[C@@H](OC)/C=C\C=C(/C)C(=O)NC(=CC1=O)C2=O [17-AAG] + O=C(CCCCCCC(=O)Nc1ccccc1)NO [Vorinostat] (partner 1 µM)
In short: as §1

Cell Line | relative viability (17-AAG + Dasatinib; first compound 0.00128 µM) | relative viability (17-AAG + Dasatinib; first compound 0.004048 µM) | relative viability (17-AAG + Dasatinib; first compound 0.0128 µM) | relative viability (17-AAG + Dasatinib; first compound 0.04048 µM) | relative viability (17-AAG + Dasatinib; first compound 0.128 µM) | relative viability (17-AAG + Navitoclax; first compound 0.00128 µM) | relative viability (17-AAG + Navitoclax; first compound 0.004048 µM) | relative viability (17-AAG + Navitoclax; first compound 0.0128 µM) | relative viability (17-AAG + Navitoclax; first compound 0.04048 µM) | relative viability (17-AAG + Navitoclax; first compound 0.128 µM) | relative viability (17-AAG + Crizotinib; first compound 0.00128 µM) | relative viability (17-AAG + Crizotinib; first compound 0.004048 µM) | relative viability (17-AAG + Crizotinib; first compound 0.0128 µM) | relative viability (17-AAG + Crizotinib; first compound 0.04048 µM) | relative viability (17-AAG + Crizotinib; first compound 0.128 µM) | relative viability (17-AAG + Vorinostat; first compound 0.00128 µM) | relative viability (17-AAG + Vorinostat; first compound 0.004048 µM) | relative viability (17-AAG + Vorinostat; first compound 0.0128 µM) | relative viability (17-AAG + Vorinostat; first compound 0.04048 µM) | relative viability (17-AAG + Vorinostat; first compound 0.128 µM)
HARA | 0.234 | 0.278 | 0.261 | 0.284 | 0.141 | 1.16 | 1.21 | 1.15 | 1.12 | 1.14 | 1.05 | 1.05 | 1.06 | 1.12 | 0.725 | 0.485 | 0.586 | 0.517 | 0.396 | 0.097
HCC-366 | 0.726 | 0.654 | 0.0387 | 0.0326 | 0.0293 | 1.06 | 1.02 | 0.358 | 0.0314 | 0.0217 | 0.463 | 0.506 | 0.0283 | 0.018 | 0.0156 | 0.305 | 0.374 | 0.149 | 0.0397 | 0.0268
NCI-H441 | 0.587 | 0.45 | 0.129 | 0.122 | 0.127 | 0.527 | 0.335 | 0.157 | 0.262 | 0.131 | 0.804 | 0.707 | 0.462 | 0.292 | 0.0949 | 0.968 | 0.996 | 0.617 | 0.128 | 0.121
NCI-H2405 | 0.195 | 0.173 | 0.167 | 0.128 | 0.149 | 0.98 | 0.71 | 0.231 | 0.271 | 0.165 | 0.868 | 0.837 | 0.922 | 0.303 | 0.163 | 1.08 | 0.994 | 0.391 | 0.209 | 0.193
NCI-H1975 | 0.315 | 0.247 | 0.121 | 0.104 | 0.0938 | 1.23 | 0.928 | 0.453 | 0.186 | 0.145 | 0.951 | 0.825 | 0.218 | 0.163 | 0.126 | 0.716 | 0.597 | 0.311 | 0.157 | 0.152
NCI-H2347 | 0.308 | 0.248 | 0.216 | 0.176 | 0.118 | 0.908 | 0.737 | 0.74 | 0.441 | 0.245 | 0.747 | 0.791 | 0.738 | 0.486 | 0.317 | 0.569 | 0.557 | 0.524 | 0.329 | 0.379
A-427 | 0.698 | 0.709 | 0.692 | 0.538 | 0.156 | 0.95 | 0.946 | 0.891 | 0.991 | 0.986 | 1.03 | 0.872 | 0.899 | 0.881 | 0.798 | 0.875 | 0.849 | 0.867 | 0.373 | 0.298
LCLC-97TM1 | 0.796 | 0.813 | 0.777 | 0.224 | 0.159 | 0.47 | 0.573 | 0.518 | 0.378 | 0.355 | 0.325 | 0.387 | 0.433 | 0.395 | 0.295 | 0.848 | 0.668 | 0.634 | 0.44 | 0.0747
HCC-15 | 0.617 | 0.434 | 0.0928 | 0.0907 | 0.0837 | 0.767 | 0.57 | 0.434 | 0.469 | 0.144 | 0.767 | 0.758 | 0.456 | 0.4 | 0.132 | 0.892 | 0.995 | 0.641 | 0.407 | 0.263
UMC-11 | 0.464 | 0.455 | 0.376 | 0.232 | 0.162 | 0.363 | 0.37 | 0.304 | 0.17 | 0.138 | 0.717 | 0.58 | 0.399 | 0.148 | 0.0804 | 0.467 | 0.363 | 0.343 | 0.229 | 0.222
NCI-H1651 | 0.486 | 0.415 | 0.206 | 0.186 | 0.111 | 1.05 | 0.882 | 1.01 | 0.214 | 0.148 | 0.828 | 0.82 | 0.828 | 0.827 | 0.571 | 0.538 | 0.536 | 0.545 | 0.578 | 0.492
NCI-H2023 | 0.572 | 0.281 | 0.0632 | 0.0704 | 0.059 | 0.989 | 0.867 | 0.641 | 0.11 | 0.112 | 0.627 | 0.575 | 0.128 | 0.0736 | 0.063 | 0.572 | 0.37 | 0.112 | 0.0782 | 0.0643
COR-L 105 | 0.388 | 0.306 | 0.356 | 0.202 | 0.263 | 0.936 | 0.756 | 0.721 | 0.604 | 0.486 | 0.961 | 0.9 | 0.793 | 0.568 | 0.661 | 0.876 | 0.983 | 0.783 | 0.728 | 0.439
NCI-H1734 | 0.482 | 0.445 | 0.356 | 0.176 | 0.105 | 0.871 | 0.811 | 0.756 | 0.24 | 0.114 | 0.647 | 0.681 | 0.646 | 0.195 | 0.142 | 0.77 | 0.851 | 0.574 | 0.271 | 0.132
NCI-H322M | 0.284 | 0.302 | 0.256 | 0.257 | 0.268 | 1.15 | 1.18 | 1.26 | 0.573 | 0.564 | 0.811 | 0.92 | 0.979 | 0.65 | 0.442 | 0.987 | 1.15 | 0.569 | 0.383 | 0.482
CAL-12T | 0.475 | 0.396 | 0.456 | 0.326 | 0.0959 | 1.25 | 1.17 | 1.21 | 0.799 | 0.296 | 0.676 | 0.775 | 0.646 | 0.778 | 0.255 | 0.796 | 0.729 | 0.671 | 0.65 | 0.282
HCC-78 | 0.358 | 0.508 | 0.403 | 0.359 | 0.193 | 0.753 |  | 0.938 | 0.942 | 0.286 | 0.378 |  | 0.351 | 0.273 | 0.235 | 0.441 | 0.42 | 0.47 | 0.689 | 0.413
NCI-H2085 | 0.184 | 0.271 | 0.243 | 0.292 | 0.298 | 1.08 | 1.11 | 1.18 | 1.11 | 0.808 | 0.913 | 0.71 | 0.971 | 0.924 | 0.637 | 0.787 | 0.809 | 0.861 | 0.665 | 0.599

Source: the supplement of paper PMC10307832
